In series [1] the test system is Mouse macrophage cell line RAW264.7. Briefly: Antibiotic selection of transfected RAW264.7 cells. In kind it is cell-based. The conditions noted are these: transfected RAW cells. How it is done:
Mouse macrophage cell line RAW264.7 from the ATCC was used for reporter gene assays. RAW cells were cultured at 37° C. in Dulbecco's modified Eagle medium (GibcoBRL), supplemented with 10% defined fetal bovine serum (low endotoxin, Hyclone). Transient transfection was carried out in 6 well plates with SuperFect Transfection Reagent (Qiagen) using the protocol provided by the supplier. In brief, 6×10^5 cells were seeded in each well the day before transfection. 2 μg of DNA and 10 μl of SuperFect reagent were added to the cells. For the purposed of selecting stable cell lines, vectors containing antibiotic resistant genes (e.g. hygromycin, puromycin and blasticidin) were also included at a ratio of 1:5 or 1:10 to the reporter DNA. 48 hours post-transfection, the cells were transferred into 10 cm dishes. An antibiotic was added at 150 μg/ml of hygromycin, 400 ng/ml of puromycin, or 3 μg/ml of blasticidin. […] Two weeks later, the cells which sustained antibiotic selection were seeded into three 96 well plates at the density of 0.3 cell/well. After 3-4 weeks, 44 single clones each of MALH (hygromycin) and MALB (blasticidin) were harvested and assayed. Pools of MALH or MALB were also combined for population experiments. The total selection time was 5-6 weeks.

In series [2] the test system is HepG2 (human hepatoma cells). Briefly: Gene chip (Affymetrix) expression profiling of HGF-treated hepatocyte cells. In kind it is cell-based. The conditions noted are these: HepG2, 75 ng/ml HGF 4 hours vs untreated. How it is done: A method assessing the responsiveness of gene transcript to Hepatocyte Growth Factor (HGF) in a human hepatocyte cell line is exemplified.
Human hepatocyte cells, HepG2 (human hepatoma cells ATCC accession no. HB-8065), were plated at 8×10^5 cells per ml in a 4 separate wells of a 6-well plate and incubated overnight at 37° C., 5% CO2. Eighteen hours after plating, 2 wells of cells were treated with 75 ng/ml of HGF continuously for 4 hours, while two samples were left untreated. Cells were harvested by 1×PBS wash, scraped into a 15 ml conical tube and placed on ice. Samples were centrifuged to pellet the cells, flash frozen on dry ice and submitted for RNA extraction.
The following protocol was used to isolate total RNA from the 2 untreated and 2 treated samples:
The following protocol was used to generate cDNA then cRNA from the total RNA preparation:
The following protocol was used to hybridize the cRNA to gene chips (Affymetrix):
Following the hybridization, the chips are analyzed for relative fluorescence intensity corresponding to each set of oligonucleotides. The location of each oligonucleotide and the gene it represents on the array is known. Using, for example, Microsoft Excel, a list of each oligonucleotide, corresponding gene and relative intensity are recorded and saved. The data sets for treated and untreated are compared side-by-side for average-fold change. The resulting list is parsed by magnitude fold-change and can be represented as text (Excel), or visually (Gene-Spring or Tree-view).
The following details the results of a chip study. […] The list begins with the greatest fold induction (FC) and ends with greatest fold repression.

In the case of `CN(CC[C@H](N)CC(=O)N[C@H]1C=C[C@H](n2ccc(N)nc2=O)O[C@@H]1C(=O)O)C(=N)N` [blasticidin], in series [1] (3 μg/ml blasticidin), the “cell death within 3 days of antibiotic selection” value was “Massive cell death”.

`COc1ccc(C[C@H](N)C(=O)N[C@H]2[C@@H](O)[C@H](n3cnc4c(N(C)C)ncnc43)O[C@@H]2CO)cc1` [puromycin]: the “cell death within 3 days of antibiotic selection” value in series [1] (400 ng/ml puromycin) is reported as “not”.

Regarding Hepatocyte Growth Factor [HGF], in series [2], the “FC (fold change) 277_at myeloid cell differentiation protein (MCL1) (L08246)” value turned out to be 6 fold, the “FC (fold change) 529_at dual-specificity protein phosphatase (U15932)” value is listed as 5 fold, the “FC (fold change) 660_at mitochondrial 1,25-dihydroxyvitamin D3 24-hydroxylase (L13286)” value turned out to be 9 fold and the “FC (fold change) 1237_at IEX-1 radiation-inducible immediate-early gene (S81914)” value was determined as 8 fold. Moreover, in series [2], the “FC (fold change) 1379_at HUMECK protein tyrosine kinase (M59371)” value was found to be 8 fold, the “FC (fold change) 1890_at TGF-beta superfamily protein (AB000584)” value stood at 5 fold, the “FC (fold change) 2057_g_at fibroblast growth factor (FGF) receptor-1 (M34641)” value is given as 5 fold and the “FC (fold change) 31888_s_at IPL (AF001294)” value worked out at 14 fold. Also, in series [2], the “FC (fold change) 32786_at jun-B (X51345)” value came to 7 fold, the “FC (fold change) 33146_at myeloid cell differentiation protein (MCL1) (L08246)” value was 6 fold, the “FC (fold change) 34476_r_at epiregulin (D30783)” value was found to be 15 fold and the “FC (fold change) 34898_at amphiregulin (AR) (M30704)” value was found to be 13 fold. For the same compound, in series [2], the “FC (fold change) 35372_r_at beta-thromboglobulin-like protein (M17017)” value was found to be 8 fold, the “FC (fold change) 35454_at KIAA0450 protein (AB007919)” value was 5 fold, the “FC (fold change) 35597_at C8FW phosphoprotein (AJ000480)” value was determined as 7 fold and the “FC (fold change) 36097_at transcription factor ETR101 (M62831)” value stood at 5 fold. Also, in series [2], the “FC (fold change) 36324_at A2b adenosine receptor (X68487)” value was 6 fold, the “FC (fold change) 36344_at proteinase-activated receptor-2 (U34038)” value stood at 7 fold, the “FC (fold change) 36345_g_at proteinase-activated receptor-2 (U34038)” value stood at 8 fold and the “FC (fold change) 36543_at placental tissue factor (J02931)” value stood at 7 fold. Further, in series [2], the “FC (fold change) 36711_at novel MAFF LIKE protein (AL021977)” value was found to be 8 fold, the “FC (fold change) 36742_at putative zinc finger protein (ZNFB7) (U34249)” value came out at 5 fold, the “FC (fold change) 37680_at gravin (U81607)” value is 7 fold and the “FC (fold change) 38125_at beta-migrating plasminogen activator inhibitor I (M14083)” value was determined as 13 fold. Moreover, in series [2], the “FC (fold change) 38247_at proteinase activated receptor-2 mRNA, 3UTR (U67058)” value is recorded as 9 fold; the “FC (fold change) 38772_at CYR61 (Y11307)” value is 9 fold; the “FC (fold change) 39105_at vasodilator-stimulated phosphoprotein (VASP) (Z46389)” value is 11 fold; the “FC (fold change) 39248_at za55a01.s1 cDNA (N74607)” value was determined as 6 fold. In series [2], the “FC (fold change) 40385_at chemokine exodus-1 mRNA (U64197)” value is 19 fold, the “FC (fold change) 40614_at SHB (X75342)” value came to 8 fold, the “FC (fold change) 41193_at DUSP6 (AB013382)” value was determined as 6 fold and the “FC (fold change) 41524_at inositol polyphosphate 1-phosphatase (L08488)” value was determined as 6 fold. In series [2] (negative = repression), the “FC (fold change) 1974_s_at p53 cellular tumor antigen (X02469)” value was −5 fold, the “FC (fold change) 2089_s_at H06628 similar to ERBB-3 receptor protein-tyrosine kinase precursor” value is on record as −5 fold, the “FC (fold change) 32787_at epidermal growth factor receptor (HER3) (M34309)” value was −8 fold and the “FC (fold change) 36048_at HRIHFB2436 (AB015342)” value is on record as −5 fold. In addition, in series [2] (negative = repression), the “FC (fold change) 37487_at KIAA1093 protein (AB029016)” value is on record as −5 fold.

These data come from patent US20040076954A1, “Genomics-driven high speed cellular assays, development thereof, and collections of cellular reporters” (IRM, LLC, priority 2001, published 2004).
